Legend:
[1] = Cumulative release of flurbiprofen from implant matrix at different polymer concentrations; format: physicochemical; details: about 5% flurbiprofen; for cumulative release: about 55% poly(DL-lactide); for cumulative percent release: polymer concentration about 45%
From the text: The release rate of the bioactive agent from the implant matrix may also be adjusted by varying the concentration of the polymer in the polymer solution. For example, the more dilute the polymer concentration, the more readily the bioactive agent will be released from the implant matrix. For example, in a system containing about 5% flurbiprofen and a polymer concentration of about 55% poly(DL-lactide), a cumulative release of about 11.4% at day 1 and about 23% at day 7 may be provided. With a polymer concentration of about 45%, the cumulative percent release is about 23% at day 1 and about 40% at day 7.

[2] = Ex vivo release of bioactive agent from poly(DL-lactide) implant matrix, with and without release rate modification agent; format: physicochemical
From the text: The use of a release rate modification agent may either decrease or increase the release of the bioactive agent in the range of multiple orders of magnitude (e.g., 1 to 10 to 100), preferably up to a ten-fold change, as compared to the release of a bioactive agent from a solid matrix without the release rate modification agent. For example, naltrexone and doxycycline are substantially completely released from a polymer matrix comprised of poly(DL-lactide) within about 2-3 days ex vivo. With the addition of a release rate modification agent such as ethyl heptanoate which is hydrophobic to the polymer solution, and formation of the implant matrix through interaction of the polymer solution and an aqueous medium, the release rate of naltrexone or doxycycline can be slowed to produce substantially complete release of the drug within about seven days. With the inclusion of a greater amount of a release rate modification agent into the polymer solution, the time period of the release can be increased to about fourteen days. Other release rate modification agents which are hydrophilic such as polyethylene glycol may increase the release of the bioactive agent. […]

CC(C(=O)O)c1ccc(-c2ccccc2)c(F)c1 (stereo not drawn) [flurbiprofen]
cumulative release ([1]; day 1): about 11.4% | cumulative release ([1]; day 7): about 23% | cumulative percent release ([1]; day 1): about 23% | cumulative percent release ([1]; day 7): about 40%

O=C1CC[C@@]2(O)[C@H]3Cc4ccc(O)c5c4[C@@]2(CCN3CC2CC2)[C@H]1O5 [naltrexone]
time period of the release ([2]; poly(DL-lactide) matrix with a greater amount of release rate modification agent): about fourteen | time to substantially complete release from polymer matrix ([2]; poly(DL-lactide) matrix with ethyl heptanoate added as release rate modification agent): about seven

— patent US6395293B2, “Biodegradable implant precursor” (Atrix Laboratories, priority 1989, dated 2002)
